Patent US20030032651A1 (priority 2001, published 2003)

Columns and labels:
[1] = Rat hindpaw withdrawal latency (HWL) to mechanical stimulation (Randall Selitto Test); type: in vivo; conditions: Day 14, i.t. every 12 hrs, morphine 8 μg rotated with nociceptin 10 nmol every 2 days
[2] = Rat hindpaw withdrawal latency (HWL) to thermal stimulation (hot-plate test, 52° C.); type: in vivo; conditions: Day 6, i.t. every 12 hrs: morphine 8 μg, or rotated with nociceptin 10 nmol every 2 days
[3] = Development of tolerance to intrathecal analgesia in rat HWL study (thermal and mechanical); type: in vivo; conditions: drug alone i.t. every 12 hrs
[4] = after parenteral injection; cited from earlier work

Structure (SMILES) | % Changes of HWL to Mechanical Stimulation 10 Minutes After Intrathecal Injection, Left [1] | % Changes of HWL to Thermal Stimulation 10 Minutes After Intrathecal Injection, Left ([2]; left hindpaw) | % Changes of HWL to Thermal Stimulation 10 Minutes After Intrathecal Injection, Right ([2]; right hindpaw) | day by which total/complete tolerance exists [3] | brain penetration [4]
CN1CC[C@]23c4c5ccc(O)c4O[C@H]2[C@@H](O)C=C[C@H]3[C@H]1C5 [Morphine, morphine] | −0.84 ± 1.61% | −1.30 ± 2.36% | 0.51 ± 1.61% | ≤ 6 days | 
O=C1NCN(c2ccccc2)C12CCN([C@H]1CC[C@@H]3CCCc4cccc1c43)CC2 [RO 64-6198, (1S,3aS)8-(2,3,3a,4,5,6-hexahydro-1H-phenalen-1-yl)-1-phenyl-1,3,8-triaza-spiro[4,5]decan-4-one] |  |  |  |  | high degree of brain penetration
